Data taken from patent publication US20060094068A1, “Predictive markers in cancer therapy” (priority 2002, published 2006).
Entries after “also recorded” stand apart in the source; their conditions may differ.

Legend:
AKT [1] = assay: AKT phosphorylation in S1 cells; type: cell-based, human
Erk1/2 [2] = assay: Erk1/2 activation in BT474 cells (Western blot); type: cell-based, human
AKT [3] = assay: AKT activation in BT474 cells (Western blot); type: cell-based, human; conditions: 1 μM, 24 h, with or without EGF
Erk1/2 [4] = assay: Erk1/2 activation in HN5 cells (Western blot); type: cell-based, human
AKT [5] = assay: AKT activation in HN5 cells (Western blot); type: cell-based, human; conditions: 5 μM, 24 h
HN5 cells [6] = assay: Apoptosis and growth arrest in HN5 cells; type: cell-based, human
Erk1/2 [7] = assay: p-Erk1/2 in Hb4a cells (Western blot); type: cell-based, human; conditions: 72 h, GW572016 5 μM, Herceptin 10 μg/ml
Hb4a cells = assay: Hb4a cell growth, viable cell count by trypan blue exclusion; type: cell-based, human; conditions: GW572016 2.5 μM + EGF 50 ng/ml, 72 h
Method: Exponentially growing Hb4a cells were cultured in 35 mm petri dishes with serum-free medium containing 1.5% BSA. […] Viable cells were counted after 72 h using trypan blue exclusion.

Erk1/2 [8] = assay: p-Erk1/2 in HN5 tumor xenografts (Western blot); type: in vivo, CD-1 nude mice
Method: (§1) HN5 cells were grown in DMEM supplemented with 10% fetal bovine serum, sodium pyruvate and L-glutamine at 37° C. in a 95/5% air/CO2 atmosphere. […] Cells (2×10^6/mouse) in 0.2 ml were injected into the right flank of CD-1 nude mice. Female CD-1 nude mice were acquired from Charles River Laboratories. Mice were maintained in filter-topped cages in an aseptic environment with laminar flow filtered ventilation. […] Tumors were biopsied pre-treatment and 4 hours after the last dose. All animal surgery was conducted under aseptic conditions. For the initial biopsy, mice were anesthetized with isofluorane inhalation. The skin over the tumor was disinfected with iodine. A small hemostat was used to tease away the skin from the tumor, and scissors were used to make a 1 cm incision over the tumor. A scalpel and forceps were used to remove approximately 100 mg of tumor. The tumor was then frozen in liquid nitrogen. Wound clips were used to close the incision. The anesthetized mice were kept warm until they recovered mobility, usually less than 1-2 minutes. For the terminal biopsy, mice were euthanized with CO2 inhalation, and the remainder of the tumor excised. HN5 tumors were placed on dry ice in vials containing cold isopentane, nd stored at −80° C. prior to study. […]

AKT [9] = assay: p-AKT in HN5 tumor xenografts (Western blot); type: in vivo, CD-1 nude mice
Method: as §1

erbB2 [10] = target: T1, erbB2 (Homo sapiens, UniProt P04626); assay: Quantitative IHC of erbB2 in HN5 and BT474 xenografts; type: in vivo, mice; conditions: 200 mg/kg oral once daily
Erk1/2 [11] = assay: Quantitative IHC of Erk1/2 in tumor xenografts; type: in vivo, mice
Description: DAB (Dako) was used as the chromogen.
Inhibition of erbB2/EGFR p-tyr in turn led to the inhibition of downstream activated, phospho-Erk1/2.

HN5 cells [12] = conditions: cited from earlier work
erbB2 [13] = target: T1, erbB2; assay: EGF stimulation experiment, p-Tyr/erbB2 in BT474 cells; conditions: 1 μM, 24 h, serum-free, with or without EGF 50 ng/ml
erbB2 [14] = target: T1, erbB2; assay: Clinical trial, erbB2 p-tyr and total erbB2 in tumor biopsies (IHC); conditions: patient 361, 1200 mg/day
solid tumors = assay: Clinical trial, clinical response (RECIST re-staging at eight weeks); conditions: for Clinical response at 8 weeks: 1200 mg/d
Erk1/2 [15] = assay: Clinical trial, localisation of total Erk1/2 in tumor biopsies (IHC); conditions: patient 361, day 21; before treatment nuclear
Description: Erk1/2 (1:1200), erbB3 (1:10), heregulin (1:25), and TGFα (1:20) were also immunostained using the BenchMark™ with I-VIEW detection chemistry.

p-AKT = assay: Clinical trial, p-AKT in sequential tumor biopsies (quantitative IHC); conditions: patient 361, after 21 days of treatment
cyclin D1 = assay: Clinical trial, cyclin D1 in sequential tumor biopsies (quantitative IHC)
p-Erk1/2 = assay: Clinical trial, p-ERK index in sequential tumor biopsies (quantitative IHC); conditions: patient 361, day 21
S1 cells = assay: Cell cycle analysis / apoptosis in S1 cells (propidium iodide flow cytometry); conditions: 5 μM, 72 h
Method: Cells were harvested and fixed with 70% ethanol in PBS. Cell pellets were then resuspended in 0.5 ml PBS containing propidium iodide (50 μg/ml) and DNase-free RNase (100 μg/ml). Cell cycle analysis was performed using a BD Flow Cytometer (Becton Dickinson, San Jose, Calif., USA).
After 72 h, cell cycle analysis was performed using propidium iodide staining and flow cytometry as described in Materials and methods.

[16] = tested on: ERK MAP kinases and PKB/Akt; conditions: SKOV (human ovarian cancer) cells, preincubation; cited from earlier work
activated MAPK and Ki-67 = conditions: humans, phase I trials, normal skin biopsies before and after administration; cited from earlier work
[17] = 72 h, GW572016 500 nM or 1 μM, Herceptin 10 μg/ml

T1 sequence (P04626 23-1255): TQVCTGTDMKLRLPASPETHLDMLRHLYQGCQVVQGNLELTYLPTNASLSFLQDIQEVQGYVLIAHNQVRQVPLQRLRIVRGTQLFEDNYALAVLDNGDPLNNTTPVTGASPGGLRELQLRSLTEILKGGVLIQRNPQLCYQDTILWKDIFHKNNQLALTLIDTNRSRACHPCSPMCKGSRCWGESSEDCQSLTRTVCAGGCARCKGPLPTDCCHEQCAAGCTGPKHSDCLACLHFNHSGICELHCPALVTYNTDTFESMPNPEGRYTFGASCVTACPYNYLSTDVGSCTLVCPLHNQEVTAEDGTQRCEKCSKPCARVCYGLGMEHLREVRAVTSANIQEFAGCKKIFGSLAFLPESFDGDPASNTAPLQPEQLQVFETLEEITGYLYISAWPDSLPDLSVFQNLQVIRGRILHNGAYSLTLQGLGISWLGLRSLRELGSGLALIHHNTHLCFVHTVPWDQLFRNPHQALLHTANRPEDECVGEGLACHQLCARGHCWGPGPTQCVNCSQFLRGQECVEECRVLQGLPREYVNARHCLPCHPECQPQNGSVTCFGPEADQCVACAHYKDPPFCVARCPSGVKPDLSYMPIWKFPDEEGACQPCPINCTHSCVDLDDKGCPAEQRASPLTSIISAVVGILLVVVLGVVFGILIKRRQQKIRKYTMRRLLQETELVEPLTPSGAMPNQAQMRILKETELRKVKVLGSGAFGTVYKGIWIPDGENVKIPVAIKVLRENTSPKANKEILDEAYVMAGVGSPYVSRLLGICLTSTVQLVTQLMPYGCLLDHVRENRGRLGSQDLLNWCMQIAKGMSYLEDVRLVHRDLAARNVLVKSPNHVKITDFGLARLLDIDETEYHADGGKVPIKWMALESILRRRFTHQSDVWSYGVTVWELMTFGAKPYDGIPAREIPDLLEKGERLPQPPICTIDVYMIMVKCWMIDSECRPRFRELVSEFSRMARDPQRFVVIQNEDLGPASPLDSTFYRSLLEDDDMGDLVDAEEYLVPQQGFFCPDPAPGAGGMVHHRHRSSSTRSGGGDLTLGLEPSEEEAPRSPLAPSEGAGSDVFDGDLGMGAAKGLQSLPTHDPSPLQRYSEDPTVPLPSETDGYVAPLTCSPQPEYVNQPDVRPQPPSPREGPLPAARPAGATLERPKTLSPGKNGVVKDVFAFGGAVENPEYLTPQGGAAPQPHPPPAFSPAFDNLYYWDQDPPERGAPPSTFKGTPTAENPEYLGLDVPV

Compound: CS(=O)(=O)CCNCc1ccc(-c2ccc3ncnc(Nc4ccc(OCc5cccc(F)c5)c(Cl)c4)c3c2)o1 [GW572016, N-{3-Chloro-4-[(3-fluorobenzyl)oxy]phenyl}-6-[5-({[2-(methylsulfonyl)ethyl]amino}methyl)-2-furyl]4-quinazolinamine]
- Baseline phosphorylation of AKT (AKT [1]): inhibits baseline phosphorylation of AKT
- EGF stimulation of p-Erk1/2 (Erk1/2 [2]; 1 μM, 24 h, EGF 50 ng/ml): inhibited EGF stimulation of p-Erk1/2
- p-Erk1/2 levels compared with untreated controls (Erk1/2 [2]; [17]): inhibited p-Erk1/2
- p-AKT (Ser 473) (AKT [3]): completely inhibited p-AKT
- Downstream p-Erk1/2 (Erk1/2 [4]; 5 μM, 24 h): inhibited downstream p-Erk1/2
- p-Erk1/2 levels compared with untreated controls (Erk1/2 [4]; [17]): inhibited p-Erk1/2
- p-AKT (AKT [5]): inhibits baseline phosphorylation of AKT
- Growth arrest (HN5 cells [6]): growth arrest was seen
- Baseline p-Erk (Erk1/2 [7]): reduced the baseline amount of p-Tyr/erbB2 and p-Erk, effects not reversed by EGF; also recorded: decreased
- Growth inhibition with concurrent EGF (Hb4a cells): did not reverse
- p-Erk1/2 (Erk1/2 [8]; 10 mg/kg): little effect
- p-Erk1/2 (Erk1/2 [8]; 30 mg/kg/dose): inhibited p-Erk1/2 and p-AKT
- p-AKT (AKT [9]; 10 mg/kg): little effect
- p-AKT (AKT [9]; 30 mg/kg/dose): inhibited p-Erk1/2 and p-AKT
- Activated erbB2 (IHC) (erbB2 [10]): inhibition of activated EGFR and erbB2 in a dose-dependent manner
- erbB2 total protein (IHC) (erbB2 [10]): neither EGFR nor erbB2 total protein was affected
- Total Erk1/2 protein (IHC) (Erk1/2 [11]): unaffected
- p-Erk1/2 levels (IHC) (Erk1/2 [11]): reduced
- Apoptosis (Rusnak et al.) (HN5 cells [12]): increased only slightly
- Baseline levels of p-Tyr/erbB2 (erbB2 [13]): inhibited baseline levels of p-Tyr/erbB2, an effect not reversed by EGF
- Total erbB2 protein (erbB2 [14]): had no effect
- erbB2 p-tyr (erbB2 [14]; day 21): did not inhibit
- Clinical response at 8 weeks (solid tumors; patient 361, breast): partial responses
- Sequentially biopsied metastatic lymph node (solid tumors; patient 364, 1600 mg/day, at day 21 biopsy): had reduced in size
- Clinical response at 8 weeks (solid tumors; patient 372, breast): partial responses
- Stable Disease at eight weeks (solid tumors; patients with >70% decrease in pERK index): Stable Disease: 3/5
- Localisation of total Erk1/2 protein (Erk1/2 [15]): almost entirely cytoplasmic
- Inhibition of p-AKT (p-AKT): 33%
- Inhibition of expressed cyclin D1 protein (cyclin D1; patient 361, day 21): 90%
- Decrease in cyclin D1 (cyclin D1; patient 372, day 21): 80%
- Activated Erk1/2 in re-biopsy of metastatic subcutaneous nodule (p-Erk1/2): completely inhibited; also recorded: completely inactivated
- Increase in percentage of apoptotic cells vs vehicle controls (S1 cells): 23 fold

Compound: COc1cc2ncnc(Nc3ccc(F)c(Cl)c3)c2cc1OCCCN1CCOCC1 [ZD1839]
- EGF-induced increases in activation of ERK MAP kinases and PKB/Akt [16]: block EGF-induced increases in activation of ERK MAP kinases and PKB/Akt
- Expression of activated MAPK and Ki-67 in keratinocytes (activated MAPK and Ki-67): decreased expression of both activated MAPK and Ki-67
